Measured values: ChEMBL document CHEMBL5726672, “Morpholin-pyridine derivatives” (2017)

Target: Trace amine-associated receptor 1 (Mus musculus, UniProt Q923Y8)
Test: Radioligand Binding Assay : HEK-293 cells stably expressing mouse TAAR1 were maintained at 37° C. and 5% CO2 in DMEM high glucose medium, containing fetal calf serum (10%, heat inactivated for 30 min at 56° C.), penicillin/streptomycin (1%), and 375 μg/ml geneticin (Gibco). Cells were released from culture flasks using trypsin/EDTA, harvested, washed twice with ice-cold PBS (without Ca2+ and Mg2+), pelleted at 1,000 rpm for 5 min at 4° C., frozen and stored at −80° C. Frozen pellets were suspended in 20 ml HEPES-NaOH (20 mM, pH 7.4) containing 10 mM EDTA and homogenized with a Polytron (PT 6000, Kinematica) at 14′000 rpm for 20 s. The homogenate was centrifuged at 48,000×g for 30 min at 4° C. Subsequently, the supernatant was removed and discarded, and the pellet resuspended in 20 ml HEPES-NaOH (20 mM, pH 7.4) containing 0.1 mM EDTA using the Polytron (20 s at 14′000 rpm). This procedure was repeated and the final pellet resuspended in HEPES-NaOH containing 0.1 mM EDTA and homogenized using the Polytron. Typically, aliquots of 2 ml membrane portions were stored at −80° C. With each new membrane batch the dissociation constant (Kd) was determined via a saturation curve.

Sequence of Trace amine-associated receptor 1 (Q923Y8 whole entry): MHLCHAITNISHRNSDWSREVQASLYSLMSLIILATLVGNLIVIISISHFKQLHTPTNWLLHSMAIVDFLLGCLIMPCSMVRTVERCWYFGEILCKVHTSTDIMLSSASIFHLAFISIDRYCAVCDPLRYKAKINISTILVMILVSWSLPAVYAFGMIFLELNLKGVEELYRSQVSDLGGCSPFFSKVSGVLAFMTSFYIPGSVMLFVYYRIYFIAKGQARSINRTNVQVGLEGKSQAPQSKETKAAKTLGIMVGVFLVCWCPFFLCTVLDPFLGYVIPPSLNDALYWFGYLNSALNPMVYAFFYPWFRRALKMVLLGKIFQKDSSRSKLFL

SMILES: CCCc1n[nH]c(C(=O)Nc2ccc(C3CNCCO3)nc2)c1Cl (racemic)
- Ki: 5.6 nM
